Like-named read-outs stand apart in the source and are kept apart here. Where a SMILES comes first, the peptide text is derived from it. Bridges are numbered along the chain shown (N, C = ends). [ ]: non-standard residue; d: D form. The star is where a group is joined. X1 = CC[C@H](C)CCCCC(=O)*; Dab = NCC[C@H](N)C(=O)O
What was measured:
[1] = test system: fibrin- and LPS-induced microglia activation; test: cells; type: cell-based, rat
primary rat microglia [2] = test: Cell toxicity (dead cells, size <150 μm2) in LPS assay
[3] = test system: fibrin-induced microglia activation; test: Image-based assay of fibrin-induced microglia activation (HTS and dose response); type: cell-based, rat; conditions: for inhibition at 10 µM: Rattus norvegicus, Microglia, read-out: Fibrin % inhibition
[4] = test system: LPS-induced microglia activation; test: Image-based assay of LPS-induced microglia activation (HTS and dose response); type: cell-based, rat; conditions: for inhibition at 10 µM: Rattus norvegicus, Microglia, read-out: LPS % inhibition
primary rat microglia [5] = test: Cell toxicity (dead cells, size <150 μm2) in coated fibrin (cFib) assay;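 further: share of dead cells sized under 150 µm2 at 10 µM in fibrin-stimulated microglia HTS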
[6] = quadrant by fibrin and LPS inhibition in HTS of 1907 compounds
[7] = primary microglia HTS, LPS stimulation, decreased size (<150 μm^2) as marker of toxicity
[8] = primary microglia HTS, fibrin stimulation, increased cell size (>800 μm^2) as marker of activation
[9] = primary microglia HTS, LPS stimulation, increased cell size (>800 μm^2) as marker of activation
[10] = primary microglia HTS, fibrin stimulation, decreased size (<150 μm^2) as marker of toxicity
[11] = 48 h, primary microglia HTS, LPS stimulation, increased cell size (>800 μm^2) as marker of activation
[12] = primary microglia HTS, LPS stimulation, toxicity = cell size <150 μm2
[13] = primary microglia HTS, fibrin stimulation, activation = cell size >800 μm2
[14] = 48 h, primary microglia HTS, LPS stimulation, activation = cell size >800 μm2
[15] = primary microglia HTS, fibrin stimulation, toxicity = cell size <150 μm2
[16] = primary HTS, 10 μM, LPS assay, dead cells size <150 μm2
[17] = primary HTS, 10 μM, fibrin-stimulated primary microglia
[18] = primary HTS, 10 μM, LPS-stimulated primary microglia
[19] = primary HTS, 10 μM, fibrin assay, dead cells size <150 μm2
[20] = HTS of 1907 compounds, quadrant by fibrin and LPS inhibition
[21] = primary microglia HTS, 10 μM, LPS assay, cell size <150 μm^2 as marker of toxicity
[22] = primary microglia HTS, 10 μM, fibrin-stimulated, cell size >800 μm^2 as marker of activation
[23] = primary microglia HTS, 10 μM, LPS-stimulated, cell size >800 μm^2 as marker of activation
[24] = primary microglia HTS, 10 μM, fibrin assay, cell size <150 μm^2 as marker of toxicity

## CC(=O)N[C@H]1[C@H]([C@H](O)[C@H](O)CO)OC(O)(C(=O)O)C[C@@H]1O (stereo partly drawn) [N-acetylneuramic Acid, Aceneuramic Acid]
[1]; [6]
  Quadrant (FIG. 5b): Q4
Primary rat microglia [2]; [7]
  LPS % cell toxicity: 1%
[3]; [8]
  Fibrin % inhibition: −9%
[4]; [9]
  LPS % inhibition: 19%
Primary rat microglia [5]; [10]
  Fibrin % cell toxicity: 1%

## O=[N+]([O-])C(Br)(CO)CO [Bronopol]
[1]; [6]
  Quadrant (FIG. 5b): Q1
Primary rat microglia [2]; [7]
  LPS % cell toxicity: 61%
[3]; [8]
  inhibition at 10 µM: 43%
[4]; [11]
  inhibition at 10 µM: 119%
Primary rat microglia [5]; [10]
  Fibrin % cell toxicity: 2%

## CC[C@H](C)CCCCC(=O)N[C@@H](CCN)C(=O)N[C@H](C(=O)N[C@@H](CCN)C(=O)N[C@H]1CCNC(=O)[C@H]([C@@H](C)O)NC(=O)[C@H](CCN)NC(=O)[C@H](CCN)NC(=O)[C@H](CC(C)C)NC(=O)[C@@H](Cc2ccccc2)NC(=O)[C@H](CCN)NC1=O)[C@@H](C)O [Polymyxin B1] (X1-[Dab]T[Dab][Dab][Dab][dF]L[Dab][Dab]T; lactam 4-C)
[1]; [6]
  Quadrant (FIG. 5b): Q1
Primary rat microglia [2]; [7]
  LPS % cell toxicity: 1%
[3]; [8]
  Fibrin % inhibition: −21%
[4]; [9]
  LPS % inhibition: 60%
Primary rat microglia [5]; [10]
  Fibrin % cell toxicity: 1%

## CC(=O)N(CC(O)CO)c1c(I)c(C(=O)NCCO)c(I)c(C(=O)NCC(O)CO)c1I (stereo not drawn) [Ioxilan]
[1]; [6]
  Quadrant (FIG. 5b): Q4
Primary rat microglia [2]; [12]
  LPS % cell toxicity: 0%
[3]; [13]
  inhibition at 10 µM: 7%
[4]; [14]
  inhibition at 10 µM: 8%
Primary rat microglia [5]; [15]
  Fibrin % cell toxicity: 0%

## CO[C@@]1(NC(=O)Cc2cccs2)C(=O)N2C(C(=O)O)=C(COC(N)=O)CS[C@@H]21 [Cefoxitin]
[1]; primary HTS, 10 μM
  Quadrant (FIG. 5b): Q4
Primary rat microglia [2]; [16]
  LPS % cell toxicity: 0%
[3]; [17]
  inhibition at 10 µM: 6%
[4]; [18]
  inhibition at 10 µM: 8%
Primary rat microglia [5]; [19]
  Fibrin % cell toxicity: 0%

## CCCNC(=O)NS(=O)(=O)c1ccc(Cl)cc1 [Chlorpropamide]
[1]; primary HTS, 10 μM
  Quadrant (FIG. 5b): Q4
Primary rat microglia [2]; [16]
  LPS % cell toxicity: 1%
[3]; [17]
  inhibition at 10 µM: 3%
[4]; [18]
  inhibition at 10 µM: 17%
Primary rat microglia [5]; [19]
  Fibrin % cell toxicity: 1%

## CC[C@H](C)[C@H](N)C(=O)O [L-Isoleucine]
[1]; [6]
  Quadrant (FIG. 5b): Q4
Primary rat microglia [2]; [12]
  LPS % cell toxicity: 0%
[3]; [13]
  inhibition at 10 µM: -35%
[4]; [14]
  inhibition at 10 µM: 17%
Primary rat microglia [5]; [15]
  Fibrin % cell toxicity: 0%

## COC(=O)[C@@H]1[C@H]2C[C@H]3c4[nH]c5ccccc5c4CCN3C[C@@H]2CC[C@@H]1O [Yohimbine]
[1]; [20]
  Quadrant (FIG. 5b): Q4
Primary rat microglia [2]; [21]
  LPS % cell toxicity: 0%
[3]; [22]
  Fibrin % inhibition: 4%
[4]; [23]
  LPS % inhibition: −17%
Primary rat microglia [5]; [24]
  Fibrin % cell toxicity: 1%

## CN1C(C(=O)Nc2ccccn2)=C(O)c2sc(Cl)cc2S1(=O)=O [Lornoxicam]
[1]; [6]
  Quadrant (FIG. 5b): Q4
Primary rat microglia [2]; [7]
  LPS % cell toxicity: 1%
[3]; [8]
  inhibition at 10 µM: 22%
[4]; [11]
  inhibition at 10 µM: 10%
Primary rat microglia [5]; [10]
  Fibrin % cell toxicity: 0%

## CC(=O)OCC1=C(C(=O)[O-])N2C(=O)[C@@H](NC(=O)CCCC(N)C(=O)O)[C@H]2SC1.[Na+] (stereo partly drawn) [Cephalosporin C Sodium]
[1]; primary HTS, 10 μM
  Quadrant (FIG. 5b): Q4
Primary rat microglia [2]; [16]
  LPS % cell toxicity: 0%
[3]; [17]
  Fibrin % inhibition: −34%
[4]; [18]
  LPS % inhibition: 8%
Primary rat microglia [5]; [19]
  Fibrin % cell toxicity: 1%

## CC(C)(C)NCC(O)c1ccccc1Cl.Cl (stereo not drawn) [Tulobuterol, Tulobuterol Hydrochloride]
[1]; [20]
  Quadrant (FIG. 5b): Q4
Primary rat microglia [2]; [21]
  LPS % cell toxicity: 0%
[3]; [22]
  Fibrin % inhibition: 21%
[4]; [23]
  LPS % inhibition: 36%
Primary rat microglia [5]; [24]
  Fibrin % cell toxicity: 0%

## O=C(O)c1nn(Cc2ccc(Cl)cc2Cl)c2ccccc12 [Lonidamine]
[1]; [6]
  Quadrant (FIG. 5b): Q4
Primary rat microglia [2]; [12]
  LPS % cell toxicity: 0%
[3]; [13]
  inhibition at 10 µM: 7%
[4]; [14]
  inhibition at 10 µM: 19%
Primary rat microglia [5]; [15]
  Fibrin % cell toxicity: 1%

Source: patent publication US20210330611A1, “THERAPY FOR NEUROLOGICAL DISEASES/DISORDERS” (priority 2020, published 2021)
